Results as given in ChEMBL document CHEMBL4831493 (Eur J Med Chem, 2021).
The source made the active and inactive calls. The rule behind the calls is not given here.

Tests used:
[1] = Toxicity in amyloid beta (1 to 42)-induced mouse model of Alzheimer's disease assessed as morphological changes in liver tissue at 10 mg/kg/day, po measured after 9 days by HE staining method; type: organism-based; details: in vivo, 216 h, time 9 day
[2] = biological target: Mitogen-activated protein kinase 1 (Homo sapiens) (UniProt P28482); assay: Inhibition of ERK2 (unknown origin) at 0.3 uM
Mus musculus [3] = assay: Improvement in learning and spatial memory in amyloid beta (1 to 42)-induced mouse model of Alzheimer's disease at 10 mg/kg/day, po pretreated with amyloid beta42 for 3 days followed by treatment with compound and measured after 9 days measured by Y-maze test; type: functional, organism-based; details: time 9.0 day
[4] = biological target: Glycogen synthase kinase-3 beta (Mus musculus) (UniProt Q9WV60); assay: Inhibition of GSK3beta in mouse N2a cells overexpressing human tau assessed as decrease in tau phosphorylation at Ser396 residue at 0.9 uM measured after 6 hrs by Western blot assay; type: cell-based
[5] = biological target: Cyclin-dependent kinase 1 (Homo sapiens) (UniProt P06493); assay: Inhibition of CDK1 (unknown origin) at 0.3 uM
[6] = biological target: Cyclin-dependent kinase 6 (Homo sapiens) (UniProt Q00534); assay: Inhibition of CDK6 (unknown origin) at 0.3 uM
[7] = biological target: Mitogen-activated protein kinase 13 (Homo sapiens) (UniProt O15264); assay: Inhibition of p38delta (unknown origin) at 0.3 uM
[8] = biological target: Dual specificity tyrosine-phosphorylation-regulated kinase 1A (Homo sapiens) (UniProt Q13627); assay: Inhibition of dyrk1 alpha (unknown origin) at 0.3 uM
[9] = biological target: Cyclin-dependent kinase 2 (Homo sapiens) (UniProt P24941); assay: Inhibition of CDK2 (unknown origin) at 0.3 uM
[10] = biological target: T1, Acetylcholinesterase (Mus musculus) (UniProt P21836); details: ICR, dose 10.0 mg/kg, time 1.5 hrs
T1 sequence (whole entry): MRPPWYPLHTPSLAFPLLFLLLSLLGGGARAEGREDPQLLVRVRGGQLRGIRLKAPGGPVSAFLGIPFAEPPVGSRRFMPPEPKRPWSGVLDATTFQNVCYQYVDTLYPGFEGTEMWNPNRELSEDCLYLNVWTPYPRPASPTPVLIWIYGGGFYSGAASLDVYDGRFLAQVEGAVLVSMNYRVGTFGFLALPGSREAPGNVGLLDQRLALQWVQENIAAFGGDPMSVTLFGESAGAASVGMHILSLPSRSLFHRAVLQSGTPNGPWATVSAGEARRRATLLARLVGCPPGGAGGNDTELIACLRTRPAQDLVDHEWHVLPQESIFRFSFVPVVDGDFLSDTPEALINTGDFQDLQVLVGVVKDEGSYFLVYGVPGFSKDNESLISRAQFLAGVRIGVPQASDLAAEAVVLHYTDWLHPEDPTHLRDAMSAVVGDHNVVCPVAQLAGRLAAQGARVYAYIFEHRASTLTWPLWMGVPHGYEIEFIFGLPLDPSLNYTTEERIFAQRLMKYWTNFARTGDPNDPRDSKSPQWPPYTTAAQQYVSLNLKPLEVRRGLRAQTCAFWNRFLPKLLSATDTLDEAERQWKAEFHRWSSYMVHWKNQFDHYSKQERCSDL

[11] = biological target: Cyclin-dependent kinase 9 (Homo sapiens) (UniProt P50750); assay: Inhibition of CDK9 (unknown origin) at 0.3 uM
[12] = Drug level in ICR mouse brain at 10 mg/kg, po measured after 1 hr by LC/MS/MS analysis; type: ADME, organism-based; details: read-out: Ct
[13] = AUC (0 to infinity) in Sprague-Dawley rat at 10 mg/kg, po measured up to 24 hrs by LC-MS/MS analysis; type: ADME, organism-based; design: route oral, dose 10 mg/kg, time <=24; details: in vivo
[14] = Ratio of drug level in brain to plasma of ICR mouse at 10 mg/kg, po measured after 1.5 hrs by LC/MS/MS analysis; type: ADME, organism-based; details: brain and plasma
Acetylcholinesterase [15] = biological target: Acetylcholinesterase (Electrophorus electricus, UniProt O42275); assay: Inhibition of electric eel recombinant AChE preincubated for 1 min in presence of DNTB followed by addition of acetylthiocholine iodide substrate and measured after 20 mins by Ellman's method
[16] = biological target: Glycogen synthase kinase-3 beta (Homo sapiens, UniProt P49841); assay: Inhibition of human recombinant N-terminal His-tagged GSK3beta expressed in Escherichia coli using RRRPASVPPSPSLS RHS(pS)HQRR as substrate incubated for 30 mins in presence of ATP by Kinase-Glo reagent based luminescence assay
[17] = MRT (0 to infinity) in Sprague-Dawley rat at 1 mg/kg, iv measured up to 24 hrs by LC-MS/MS analysis; type: ADME, organism-based; details: in vivo
[18] = biological target: Cyclin-dependent kinase 7 (Homo sapiens) (UniProt P50613); assay: Inhibition of CDK7 (unknown origin) at 0.3 uM
[19] = Toxicity in amyloid beta (1 to 42)-induced mouse model of Alzheimer's disease assessed as changes in swimming speed at 10 mg/kg/day, po measured after 9 days; type: organism-based; details: in vivo, 216 h, time 9 day
[20] = biological target: Mitogen-activated protein kinase 11 (Homo sapiens) (UniProt Q15759); assay: Inhibition of p38beta (unknown origin) at 0.3 uM
Mus musculus [21] = assay: Improvement in learning and spatial memory in amyloid beta (1 to 42)-induced mouse model of Alzheimer's disease assessed as increase in spontaneous alteration at 10 mg/kg/day, po pretreated with amyloid beta42 for 3 days followed by treatment with compound and measured after 9 days measured by Y-maze test; type: functional, organism-based; details: time 9.0 day
[22] = biological target: Glycogen synthase kinase-3 beta (Mus musculus) (UniProt Q9WV60); assay: Inhibition of GSK3beta in glutamate-induced mouse HT-22 cells assessed as increase in synaptophysin level at 0.6 uM pretreated with glutamate for 24 hrs followed by compound treatment by immunocytochemistry assay; type: cell-based
Acetylcholinesterase [23] = biological target: Acetylcholinesterase (Homo sapiens, UniProt P22303); assay: Inhibition of human recombinant AChE preincubated for 1 min in presence of DNTB followed by addition of acetylthiocholine iodide substrate and measured after 20 mins by Ellman's method
[24] = Cmax in Sprague-Dawley rat at 10 mg/kg, po measured up to 24 hrs by LC-MS/MS analysis; type: ADME, organism-based; design: route oral, dose 10 mg/kg, time <=24; details: in vivo
[25] = biological target: Dual specificity tyrosine-phosphorylation-regulated kinase 1B (Homo sapiens) (UniProt Q9Y463); assay: Inhibition of dyrk1 beta (unknown origin) at 0.3 uM
[26] = Drug level in ICR mouse brain at 10 mg/kg, po measured after 1.5 hrs by LC/MS/MS analysis; type: ADME, organism-based; details: read-out: Ct
[27] = biological target: Glycogen synthase kinase-3 beta (Mus musculus) (UniProt Q9WV60); assay: Inhibition of GSK3beta in mouse N2a cells overexpressing human tau assessed as decrease in tau phosphorylation at Ser 396 residue measured after 6 hrs by Western blot assay; type: cell-based
[28] = Tmax in Sprague-Dawley rat at 10 mg/kg, po measured up to 24 hrs by LC-MS/MS analysis; type: ADME, organism-based; details: in vivo
[29] = Half life in Sprague-Dawley rat at 1 mg/kg, iv measured up to 24 hrs by LC-MS/MS analysis; type: ADME, organism-based; details: in vivo
[30] = Drug level in ICR mouse plasma at 10 mg/kg, po measured after 1.5 hrs by LC/MS/MS analysis; type: ADME, organism-based

Glycogen synthase kinase-3 beta (Mus musculus), sequence (Q9WV60 whole entry, looked up): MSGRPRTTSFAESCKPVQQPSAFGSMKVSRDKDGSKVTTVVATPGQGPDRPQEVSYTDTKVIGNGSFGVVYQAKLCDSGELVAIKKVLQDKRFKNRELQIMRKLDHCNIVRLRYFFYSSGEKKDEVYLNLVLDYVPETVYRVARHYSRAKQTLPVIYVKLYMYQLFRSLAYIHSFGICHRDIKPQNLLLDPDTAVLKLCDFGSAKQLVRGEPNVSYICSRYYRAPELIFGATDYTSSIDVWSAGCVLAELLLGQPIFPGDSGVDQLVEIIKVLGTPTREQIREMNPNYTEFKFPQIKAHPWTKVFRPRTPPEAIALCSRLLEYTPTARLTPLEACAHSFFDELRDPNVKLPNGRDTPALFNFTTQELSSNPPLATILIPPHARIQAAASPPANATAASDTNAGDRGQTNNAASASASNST
Mitogen-activated protein kinase 1 (Homo sapiens), sequence (P28482 whole entry): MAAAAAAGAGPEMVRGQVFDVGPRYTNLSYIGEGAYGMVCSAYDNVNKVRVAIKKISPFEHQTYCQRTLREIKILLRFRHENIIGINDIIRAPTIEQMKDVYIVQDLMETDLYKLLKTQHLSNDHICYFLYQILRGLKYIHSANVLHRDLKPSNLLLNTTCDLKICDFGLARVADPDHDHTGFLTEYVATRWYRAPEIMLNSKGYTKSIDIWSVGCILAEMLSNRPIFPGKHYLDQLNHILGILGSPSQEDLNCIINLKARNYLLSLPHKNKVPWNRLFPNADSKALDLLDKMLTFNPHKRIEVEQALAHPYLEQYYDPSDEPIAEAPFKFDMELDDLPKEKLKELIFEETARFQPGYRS
Acetylcholinesterase (Electrophorus electricus, UniProt O42275), sequence (O42275 whole entry): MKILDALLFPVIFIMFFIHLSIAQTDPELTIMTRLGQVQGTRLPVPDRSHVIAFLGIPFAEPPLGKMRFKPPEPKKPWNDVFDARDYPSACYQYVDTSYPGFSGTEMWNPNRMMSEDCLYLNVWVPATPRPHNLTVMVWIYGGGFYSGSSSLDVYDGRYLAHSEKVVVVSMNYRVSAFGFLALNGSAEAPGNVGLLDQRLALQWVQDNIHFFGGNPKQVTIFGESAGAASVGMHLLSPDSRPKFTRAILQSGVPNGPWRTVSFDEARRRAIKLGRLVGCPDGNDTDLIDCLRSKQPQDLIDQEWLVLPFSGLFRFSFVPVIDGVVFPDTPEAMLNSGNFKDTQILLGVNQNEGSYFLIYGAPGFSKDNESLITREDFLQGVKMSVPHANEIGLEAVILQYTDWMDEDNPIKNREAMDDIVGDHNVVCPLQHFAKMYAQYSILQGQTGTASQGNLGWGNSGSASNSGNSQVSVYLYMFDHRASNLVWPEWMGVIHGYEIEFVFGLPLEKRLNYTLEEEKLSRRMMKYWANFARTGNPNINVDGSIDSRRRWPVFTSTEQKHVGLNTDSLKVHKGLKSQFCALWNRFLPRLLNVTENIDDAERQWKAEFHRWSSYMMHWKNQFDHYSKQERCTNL
Cyclin-dependent kinase 1 (Homo sapiens), sequence (P06493 whole entry, looked up): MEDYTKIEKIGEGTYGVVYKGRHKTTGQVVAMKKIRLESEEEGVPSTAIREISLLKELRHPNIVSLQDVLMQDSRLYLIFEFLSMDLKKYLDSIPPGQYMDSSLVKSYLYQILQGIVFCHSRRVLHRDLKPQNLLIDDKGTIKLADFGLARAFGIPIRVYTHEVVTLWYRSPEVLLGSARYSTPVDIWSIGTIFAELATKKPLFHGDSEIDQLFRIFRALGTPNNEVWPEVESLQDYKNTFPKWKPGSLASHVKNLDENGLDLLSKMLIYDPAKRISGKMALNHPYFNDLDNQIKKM
Mitogen-activated protein kinase 13 (Homo sapiens), sequence (O15264 whole entry): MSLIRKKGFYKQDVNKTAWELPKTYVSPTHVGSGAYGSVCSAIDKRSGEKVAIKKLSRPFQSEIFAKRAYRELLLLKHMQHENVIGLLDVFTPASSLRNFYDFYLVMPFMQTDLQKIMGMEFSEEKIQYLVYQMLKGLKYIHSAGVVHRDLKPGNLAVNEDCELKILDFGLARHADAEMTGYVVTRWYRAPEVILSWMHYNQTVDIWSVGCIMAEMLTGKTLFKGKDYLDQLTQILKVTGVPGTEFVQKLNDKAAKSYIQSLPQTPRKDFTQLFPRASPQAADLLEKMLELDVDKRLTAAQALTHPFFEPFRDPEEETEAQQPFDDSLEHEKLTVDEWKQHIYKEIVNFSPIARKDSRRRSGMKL
Cyclin-dependent kinase 6 (Homo sapiens), sequence (Q00534 whole entry): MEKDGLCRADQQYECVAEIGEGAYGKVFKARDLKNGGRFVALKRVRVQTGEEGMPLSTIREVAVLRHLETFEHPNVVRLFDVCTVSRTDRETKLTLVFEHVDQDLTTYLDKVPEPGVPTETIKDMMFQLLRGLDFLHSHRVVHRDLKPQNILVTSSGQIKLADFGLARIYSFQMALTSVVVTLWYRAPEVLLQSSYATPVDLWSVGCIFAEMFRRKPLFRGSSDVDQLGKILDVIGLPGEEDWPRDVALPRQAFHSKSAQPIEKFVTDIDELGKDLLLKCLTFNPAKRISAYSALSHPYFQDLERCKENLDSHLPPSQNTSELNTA
Dual specificity tyrosine-phosphorylation-regulated kinase 1B (Homo sapiens), sequence (Q9Y463 whole entry, looked up): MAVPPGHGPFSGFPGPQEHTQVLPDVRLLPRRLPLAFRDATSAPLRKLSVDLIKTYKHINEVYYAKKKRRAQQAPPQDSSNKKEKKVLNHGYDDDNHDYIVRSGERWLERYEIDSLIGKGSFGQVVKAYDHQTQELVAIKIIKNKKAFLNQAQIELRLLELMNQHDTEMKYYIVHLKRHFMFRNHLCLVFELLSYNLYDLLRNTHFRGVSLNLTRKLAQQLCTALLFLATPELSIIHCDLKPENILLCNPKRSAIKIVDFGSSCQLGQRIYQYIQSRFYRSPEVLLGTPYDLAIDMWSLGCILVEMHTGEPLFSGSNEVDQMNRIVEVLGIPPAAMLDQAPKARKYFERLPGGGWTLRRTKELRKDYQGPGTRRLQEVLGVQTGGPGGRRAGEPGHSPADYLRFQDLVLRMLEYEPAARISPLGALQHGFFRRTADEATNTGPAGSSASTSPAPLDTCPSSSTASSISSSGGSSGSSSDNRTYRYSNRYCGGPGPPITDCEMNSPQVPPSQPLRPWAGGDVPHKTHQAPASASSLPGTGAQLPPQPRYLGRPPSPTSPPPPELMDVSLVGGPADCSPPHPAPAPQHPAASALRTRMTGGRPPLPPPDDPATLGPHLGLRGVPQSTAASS
Cyclin-dependent kinase 7 (Homo sapiens), sequence (P50613 whole entry): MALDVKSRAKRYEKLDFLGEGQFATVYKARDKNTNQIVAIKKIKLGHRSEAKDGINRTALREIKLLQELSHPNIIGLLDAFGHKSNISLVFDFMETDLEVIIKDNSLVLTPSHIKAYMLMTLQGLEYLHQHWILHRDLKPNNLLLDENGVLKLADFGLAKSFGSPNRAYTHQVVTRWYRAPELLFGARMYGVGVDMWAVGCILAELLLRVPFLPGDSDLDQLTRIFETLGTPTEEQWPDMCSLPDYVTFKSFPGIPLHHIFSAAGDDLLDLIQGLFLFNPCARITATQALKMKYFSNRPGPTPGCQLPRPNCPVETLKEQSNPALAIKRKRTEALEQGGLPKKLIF
Mitogen-activated protein kinase 11 (Homo sapiens), sequence (Q15759 whole entry): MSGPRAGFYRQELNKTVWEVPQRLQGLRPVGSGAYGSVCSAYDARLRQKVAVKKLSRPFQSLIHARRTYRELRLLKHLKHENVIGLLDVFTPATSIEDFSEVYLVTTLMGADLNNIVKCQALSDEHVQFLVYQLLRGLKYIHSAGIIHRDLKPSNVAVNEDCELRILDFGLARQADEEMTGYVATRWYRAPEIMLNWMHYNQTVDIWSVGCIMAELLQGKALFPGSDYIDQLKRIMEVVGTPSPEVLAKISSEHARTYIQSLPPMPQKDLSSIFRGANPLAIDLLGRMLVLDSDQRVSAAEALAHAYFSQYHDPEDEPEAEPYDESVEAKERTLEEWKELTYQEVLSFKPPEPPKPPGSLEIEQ
Acetylcholinesterase (Homo sapiens, UniProt P22303), sequence (P22303 whole entry): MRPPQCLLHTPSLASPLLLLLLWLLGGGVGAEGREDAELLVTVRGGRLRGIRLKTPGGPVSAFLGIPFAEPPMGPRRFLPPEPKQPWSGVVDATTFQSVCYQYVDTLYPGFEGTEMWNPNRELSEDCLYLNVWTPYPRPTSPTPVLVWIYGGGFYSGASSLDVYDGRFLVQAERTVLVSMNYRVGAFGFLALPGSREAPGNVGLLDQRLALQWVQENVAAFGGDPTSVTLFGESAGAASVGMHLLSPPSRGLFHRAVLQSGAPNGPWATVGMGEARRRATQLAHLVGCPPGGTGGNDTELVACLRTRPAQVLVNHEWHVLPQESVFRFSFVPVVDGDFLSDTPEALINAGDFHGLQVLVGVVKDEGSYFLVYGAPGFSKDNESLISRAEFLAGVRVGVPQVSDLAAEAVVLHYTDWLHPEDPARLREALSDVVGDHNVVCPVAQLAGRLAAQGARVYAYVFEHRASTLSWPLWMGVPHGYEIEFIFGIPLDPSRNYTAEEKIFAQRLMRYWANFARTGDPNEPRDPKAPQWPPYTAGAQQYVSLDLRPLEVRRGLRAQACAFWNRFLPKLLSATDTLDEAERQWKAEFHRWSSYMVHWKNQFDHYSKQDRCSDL
Glycogen synthase kinase-3 beta, sequence (P49841 whole entry): as the sequence (Q9WV60 whole entry, looked up) above, with P390T, A392T, T400A, A402T counted along it
Cyclin-dependent kinase 9 (Homo sapiens), sequence (P50750 whole entry): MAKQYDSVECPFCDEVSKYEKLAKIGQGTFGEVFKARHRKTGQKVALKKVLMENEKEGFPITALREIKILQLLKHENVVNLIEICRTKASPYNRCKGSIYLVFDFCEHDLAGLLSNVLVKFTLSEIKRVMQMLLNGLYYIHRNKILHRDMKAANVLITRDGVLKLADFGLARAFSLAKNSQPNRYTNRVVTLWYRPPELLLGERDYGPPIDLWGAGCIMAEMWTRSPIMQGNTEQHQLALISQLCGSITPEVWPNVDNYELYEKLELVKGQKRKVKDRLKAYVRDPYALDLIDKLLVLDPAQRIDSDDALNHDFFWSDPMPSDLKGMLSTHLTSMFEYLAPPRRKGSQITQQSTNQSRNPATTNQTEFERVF

Which Activity [1] does the source give for `O=C(Nc1cncc(OCC2CCN(Cc3ccc(F)cc3)CC2)c1)c1ccnc(NC(=O)C2CC2)c1` here?
The Activity was “Non-Toxic”.

And the inhibition [2]?
Its inhibition is “inactive”.

What about the Activity (Mus musculus [3]) of the same compound?
The Activity was “Active”.

What about the inhibition [4] of the same compound?
Its inhibition is “inactive”.

What about the inhibition [5] of the same compound?
Its inhibition is “inactive”.

And the inhibition [6]?
Its inhibition is “inactive”.

What about the inhibition [7] of the same compound?
The inhibition was “inactive”.

And the inhibition [8]?
The inhibition was “inactive”.

And the inhibition [9]?
Its inhibition is “inactive”.

And the inhibition [10]?
Its inhibition is 85.5%.

What about the inhibition [11] of the same compound?
The inhibition was “inactive”.

What about the concentration at 1 h [12] of the same compound?
Its concentration at 1 h is 62 ng/g.

And the AUC(0-inf) [13]?
The AUC(0-inf) was 1260 ng·h/mL.

What about the Kp at 1.5 h [14] of the same compound?
Its Kp at 1.5 h is 0.33.

What about the IC50 (Acetylcholinesterase [15]) of the same compound?
Its IC50 is 11.8 nM.

What about the IC50 [16] of the same compound?
The IC50 was 31 nM.

What about the MRT inf [17] of the same compound?
The MRT inf was 5.1 h.

What about the inhibition [18] of the same compound?
The inhibition was “inactive”.

What about the Activity [19] of the same compound?
Its Activity is “Non-Toxic”.

What about the inhibition [20] of the same compound?
The inhibition was “inactive”.

What about the Activity (Mus musculus [21]) of the same compound?
The Activity was “Active”.

What about the inhibition [22] of the same compound?
Its inhibition is “Active”.

And the IC50 (Acetylcholinesterase [23])?
The IC50 was 1 nM.

What about the Cmax [24] of the same compound?
Its Cmax is 159 ng/mL.

What about the inhibition [25] of the same compound?
The inhibition was “inactive”.

What about the concentration at 1.5 h [26] of the same compound?
The concentration at 1.5 h was 113 ng/g.

What about the inhibition [27] of the same compound?
The inhibition was “Dose-Dependent Effect”.

What about the Tmax [28] of the same compound?
The Tmax was 1.9 h.

What about the half-life [29] of the same compound?
Its half-life is 5.2 h.

What about the concentration at 1.5 h [30] of the same compound?
The concentration at 1.5 h was 343 ng/g.
